Assays:
[1] = tested on: Arachidonoylethanolamide Transport (AEAT); test: Cellular uptake of [3H]-AEA in U937 cells (assay C); assay type: cell-based; conditions: Homo sapiens, U-937; [3H]-AEA uptake, assay C (Tables 2 and 3)
FAAH = target: T1, FAAH (Sus scrofa, UniProt Q9TUI8); test: Fatty acid amide hydrolase (FAAH) inhibition, pig brain homogenate (assay D); assay type: biochemical; conditions: for FAAH inhibition at 1 µM: pig brain homogenate (assay D)
T1 construct: 165 µl of diluted pig brain homogenate; from tissue; host or cells: pig brain homogenate
T1 sequence (Q9TUI8 1-579): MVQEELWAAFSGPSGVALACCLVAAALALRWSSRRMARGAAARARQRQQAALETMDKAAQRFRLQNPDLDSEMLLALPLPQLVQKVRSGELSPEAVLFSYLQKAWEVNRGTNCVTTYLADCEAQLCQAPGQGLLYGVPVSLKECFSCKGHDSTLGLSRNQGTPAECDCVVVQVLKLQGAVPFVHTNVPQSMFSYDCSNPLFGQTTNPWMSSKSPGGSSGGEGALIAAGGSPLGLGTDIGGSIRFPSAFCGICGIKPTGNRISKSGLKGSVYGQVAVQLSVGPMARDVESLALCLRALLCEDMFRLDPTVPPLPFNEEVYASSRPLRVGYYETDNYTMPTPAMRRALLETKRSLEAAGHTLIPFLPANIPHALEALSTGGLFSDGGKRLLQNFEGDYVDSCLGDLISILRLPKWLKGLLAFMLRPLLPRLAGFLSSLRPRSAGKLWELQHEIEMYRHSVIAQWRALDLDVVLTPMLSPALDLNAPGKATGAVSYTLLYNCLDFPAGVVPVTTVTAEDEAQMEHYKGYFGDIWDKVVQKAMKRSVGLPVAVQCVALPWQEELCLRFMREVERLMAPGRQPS
Procedure: FAAH activity was assessed using pig brain homogenate according to the method described by Omeir et al., Arachidonoyl ethanolamide-[1,2-14C] as a substrate for anandamide amidase. Life Sci. 1995;56(23-24):1999-2005, and adapted by Fowler et al., Ibuprofen inhibits rat brain deamidation of anandamide at pharmacologically relevant concentrations. Mode of inhibition and structure-activity relationship. J Pharmacol Exp Ther. 1997 Nov;283(2):729-34. Briefly, 10 µl of test compounds at the adequate concentration or solvent were incubated at 37°C for 20 min with 165 µl of diluted pig brain homogenate in 10 mM Tris-HCl and 1 mM EDTA, pH 7.6 (corresponding to 100 µg/ml of total protein), 1% w/v fatty acid free BSA (Sigma, San Louis, MO, US) and 25 µl of a mixture 1:1 of nonradioactive AEA [^3H]-AEA (60 Ci mmol^-1) (concentration in the assay was 2 µM). Successively, 400 µl of a mixture 1:1 (v/v) of methanol:chloroform was added at each sample and, after vigorous vortexing, aqueous and organic phases were separated by centrifugation at 10000 rpm for 10 min. The radioactivity associated to the [^3H]-ethanolamine (produced by FAAH-catalysed breakdown of [^3H]-AEA) was measured upon addition of 3 ml of Ultima Gold scintillation liquid (Perkin Elmer, Waltham, MA, US) to 200 µl of the aqueous (upper) phase, using a Beckman LS6500 scintillation counter. Results were expressed as % of FAAH activity vs. pig brain homogenate treated only with solvent.

CB2 = CB2 (Homo sapiens, UniProt P34972); test: Radioligand displacement assay on CB2 receptor; assay type: binding; parameters: purchased Perkin Elmer RBXCB2M; conditions: for affinity towards CB2 (in words): summary of Table 3
CB2, sequence (P34972 whole entry): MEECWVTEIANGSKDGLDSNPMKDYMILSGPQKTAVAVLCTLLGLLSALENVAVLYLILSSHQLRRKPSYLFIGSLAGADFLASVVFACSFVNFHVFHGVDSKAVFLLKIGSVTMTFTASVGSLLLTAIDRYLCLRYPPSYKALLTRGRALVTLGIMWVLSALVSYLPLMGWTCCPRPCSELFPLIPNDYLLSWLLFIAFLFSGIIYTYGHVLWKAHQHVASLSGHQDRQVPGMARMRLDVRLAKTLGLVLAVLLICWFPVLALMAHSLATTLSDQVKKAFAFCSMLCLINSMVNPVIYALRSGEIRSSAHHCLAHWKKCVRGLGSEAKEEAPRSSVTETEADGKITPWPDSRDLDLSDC
Procedure: (§1) For the CB1 receptor, binding experiments were performed in the presence of 0.39 nM of the radioligand [^3H]CP55,940 (168 Ci/mmol) (Perkin Elmer, Waltham, MA, US) at 30°C in siliconized glass vials together with 7.16 µg of membrane recombinantly over-expressing CB1 (No. RBHCB1M, Perkin Elmer, Waltham, MA, US), which was resuspended in 0.2 mL (final volume) binding-buffer (50 mM TRIS-HCl, 2.5 mM EGTA, 5 mM MgCl2, 0.5 mg/mL fatty acid free BSA, pH 7.4). Test compounds were present at varying concentrations and the nonspecific binding of the radioligand was determined in the presence of 10 µM CP55,940 (Tocris Cookson Ltd., Bristol, UK). After 1.5 h incubation, the suspension was rapidly filtered through 0.05% polyethylenimine pre-soaked GF/C glass fiber filters on a 96-well cell harvester and washed nine times with 0.5 mL ice-cold washing-buffer (50 mM TRIS-HCl, 2.5 mM EGTA, 5 mM MgCl2, 2% BSA, pH 7.4). Radioactivity on filters was measured with a Beckman LS 6500 scintillation counter in 3 mL Ultima Gold scintillation liquid (Perkin Elmer, Waltham, MA, US). Data collected from three independent experiments performed in triplicates were normalized between 100% and 0% specific binding for [^3H]CP55,940. […] Derived from the dissociation constant (KD) of [^3H]CP55,940 and the concentration-dependent displacement (IC50 value), inhibition constants (Ki) of competitor compounds were calculated using the Cheng-Prusoff equation [Ki = IC50/(1+ L/KD)].
For CB2-receptor binding studies 3.8 µg of membrane recombinantly over-expressing CB2 (No. RBXCB2M, Perkin Elmer, Waltham, MA, US) were resuspended in 0.6 mL binding buffer (see above) together with 0.11 nM of the radioligand [^3H]CP55,940. The CB2-binding assay was conducted in the same manner as for CB1.

[2] = Critical micelle concentration (CMC) measurement, dye micellization; assay type: physicochemical; conditions: fluorescein dye micellization in water, pH 6.9, room temperature
Procedure: Dye micellization was carried out with a modified version of the method described by Eliyahu et al., Novel dextran-spermine conjugates as transfecting agents: comparing water-soluble and micellar polymers. […] Experiments were carried out on 96-well microtiter plates (excitation at 485 nm, emission at 535 nm). Since the emission of fluorescein is pH-dependent, the pH of the mixture was kept constant at 6.9. The CMC range was determined as the concentration range where the first statistically significant increase in fluorescence was detected.

CB1 = target: T2, CB1 (Homo sapiens, UniProt P21554); test: Radioligand displacement assay on CB1 receptor; assay type: binding; conditions: for affinity towards CB1 (in words): summary of Table 3
T2 construct: purchased Perkin Elmer RBHCB1M
T2 sequence (P21554 whole entry): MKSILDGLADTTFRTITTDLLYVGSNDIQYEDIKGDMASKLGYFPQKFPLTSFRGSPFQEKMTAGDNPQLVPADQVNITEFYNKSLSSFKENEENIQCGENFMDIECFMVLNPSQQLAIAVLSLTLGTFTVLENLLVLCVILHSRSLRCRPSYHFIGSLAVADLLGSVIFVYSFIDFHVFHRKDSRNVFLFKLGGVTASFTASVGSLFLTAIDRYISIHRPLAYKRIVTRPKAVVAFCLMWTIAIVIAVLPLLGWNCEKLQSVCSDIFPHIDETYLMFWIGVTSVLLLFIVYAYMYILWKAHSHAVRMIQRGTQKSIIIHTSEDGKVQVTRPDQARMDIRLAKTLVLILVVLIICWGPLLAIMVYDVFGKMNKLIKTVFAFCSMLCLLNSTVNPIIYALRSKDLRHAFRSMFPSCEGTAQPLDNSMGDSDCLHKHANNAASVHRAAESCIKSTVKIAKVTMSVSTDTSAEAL
Procedure: as §1

Anandamide transport = Anandamide transport (human) cellular functional assay (assay F); assay type: cell-based; conditions: human U-937 cells, 0.1 µM [3H]-Anandamide, 20 min (assay F)
Procedure: Anandamide transport is determined using human U-937 cells as receptor source. [3H]-Anandamide (0.1 Ci/mmol), final concentration 0.1 µM is used as substrate. AM-404 is used as reference compound. Reactions are carried out in KRH buffer (pH 7.4) at 37°C for 20 min. The reaction is terminated by rapid vacuum filtration onto glass fiber filters. Radioactivity trapped onto filters is determined and compared to control values in order to ascertain any interactions of test compound with anandamide uptake (Hiiliard C.J. The movement of N-arachidonylethanolamide (anandamide) across cellular membranes. Chem. Physics Lipids. 2008;108:123-134, with modifications).

[3] = target: T3, human recombinant Fatty acid amide hydrolase (Homo sapiens, UniProt O00519); test: Inhibition of human recombinant FAAH, fluorometric method (assay G); assay type: biochemical; conditions: human recombinant enzyme, AMC-anandamide substrate (assay G)
T3 sequence (O00519 1-579): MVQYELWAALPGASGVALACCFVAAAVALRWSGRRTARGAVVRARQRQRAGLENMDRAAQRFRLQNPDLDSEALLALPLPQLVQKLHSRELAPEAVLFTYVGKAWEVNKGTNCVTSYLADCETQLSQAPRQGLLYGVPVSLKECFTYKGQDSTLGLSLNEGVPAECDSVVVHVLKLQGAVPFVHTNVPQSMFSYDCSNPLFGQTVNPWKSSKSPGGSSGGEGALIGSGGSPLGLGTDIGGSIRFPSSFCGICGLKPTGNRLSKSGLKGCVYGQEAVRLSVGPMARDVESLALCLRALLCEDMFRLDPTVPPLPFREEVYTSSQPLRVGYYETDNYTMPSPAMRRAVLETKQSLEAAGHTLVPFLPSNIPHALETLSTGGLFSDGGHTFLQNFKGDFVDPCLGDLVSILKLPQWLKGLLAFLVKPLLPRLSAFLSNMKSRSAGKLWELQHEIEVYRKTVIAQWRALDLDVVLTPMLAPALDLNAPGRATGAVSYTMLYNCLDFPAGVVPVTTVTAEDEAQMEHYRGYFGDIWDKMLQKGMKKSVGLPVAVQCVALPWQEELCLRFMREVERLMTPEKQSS
Procedure: FAAH activity is measured using the modified method described by Omeir et al., Arachidonoyl ethanolamide-[1,2-14C] as a substrate for anandamide amidase. Life Sci. 1995;56(23-24):1999-2005. Human recombinant enzyme is preincubated with reference compound (methylarachidonlyfluorophosphonate, MAFP) and test compounds for 30 min at room temperature in 50 mM Tris containing 1 mM EDTA and 0.1% fatty acid free BSA (pH 8.0). Substrate (7-amino-4-methyl coumarin-arachidonamide, AMC-anandamide) is then added and incubated for 30 min at room temperature. The reaction is stopped by the addition of 2.5 µl of 10 µM URB597. Released 7-amino-4-methyl coumarin (AMC) is detected by fluorometry in order to ascertain any interactions of test compounds with the FAAH enzyme.

| SMILES | AEAT inhibition at 1 µM (Anandamide transport) | FAAH inhibition at 1 µM [3] | also measured |
| --- | --- | --- | --- |
| CCCCCCC/C=C/C=C/C(=O)NCC(C)CC (racemic) [Compound B, (2E,4E)-N-(2-methylbutyl)dodeca-2,4-diene amide] |  |  | EC50 [1]: > 10000 nM; FAAH inhibition at 1 µM (FAAH): <10 % of control; Ki (CB2): 1100 ± 84 nM; affinity towards CB2 (in words) (CB2): moderate affinity; CMC [2]: >5 µM; Ki (CB1): 1510 ± 214 nM; affinity towards CB1 (in words) (CB1): moderate affinity |
| CCCCCCC/C=C/C=C/C(=O)NCCC(C)C [Compound C, (2E,4E)-N-isopentyldodeca-2,4-diene amide] |  |  | EC50 [1]: > 10000 nM; FAAH inhibition at 1 µM (FAAH): <10 % of control; Ki (CB2): 1455 ± 14 nM; affinity towards CB2 (in words) (CB2): moderate affinity; CMC [2]: >5 µM; Ki (CB1): > 20000 nM; affinity towards CB1 (in words) (CB1): no affinity |
| CCCCCCC/C=C/C=C/C(=O)NCc1ccoc1 [Example 4, (2E,4E)-N-(furan-3-ylmethyl)dodeca-2,4-diene amide] |  |  | inhibition at 2 µM (FAAH; read-out: max. inhibition of FAAH activity): 40%; CMC [2]: < 3 µM |
| CCCCCCC/C=C/C=C/C(=O)NCc1cccn1C [Example 5] |  |  | inhibition at 1 µM (FAAH; read-out: maximal inhibition of FAAH activity): 32%; CMC [2]: < 1 µM |
| CCCCCCC/C=C/C=C/C(=O)NCc1ccc(OC)cc1 [Example 7, (2E,4E)-N-(4-methoxybenzyl)dodeca-2,4-diene amide] | 28 % of control | 6 % of control | effect on FAAH activity in combination with the FAAH inhibitor URB597 (FAAH; Figure 3, low nM concentrations): synergistic effects |
| CCCCCCC/C=C/C=C/C(=O)NCCc1ccco1 [Example 16] | 57 % of control | 42 % of control | EC50 [1]: 890 ± 400 nM |
| CCCCCCC/C=C/C=C/C(=O)NCCc1ccsc1 [Example 19] | 34 % of control | 53 % of control | EC50 [1]: 520 ± 470 nM |
| CCCCCCC/C=C/C=C/C(=O)Nc1nccs1 [Example 20] | 47 % of control | -16 % of control | EC50 [1]: 780 ± 250 nM |
| CCCCCCC/C=C/C=C/C(=O)Nc1ccccc1 [Example 24] | 30 % of control | 2 % of control |  |
| CCCCCCC/C=C/C=C/C(=O)NCc1ccccc1 [Example 25] | 47 % of control | 2 % of control |  |
| CCCCCCC/C=C/C=C/C(=O)Nc1nc2ccccc2s1 [Example 35] | 42 % of control | 61 % of control |  |
| CCCCCCC/C=C/C=C/C(=O)Nc1ccc(C2=NCCS2)cc1 [Example 37] | 38 % of control | 9 % of control |  |
| CCCCCCC/C=C/C=C/C(=O)NCc1nnn(C(=O)N(C)C)n1 [Example 39] | 120 % of control | 101 % of control |  |
| CCCCCCC/C=C/C=C/C(=O)NCC(C)O (stereo not drawn) [Example 41] | 27 % of control | 45 % of control |  |
| CCCCCCC/C=C/C=C/C(=O)NCCc1ccnc(OC)c1 [Example 47] | 50 % of control | 6 % of control |  |
| CCCCCCC/C=C/C=C/C(=O)NC(CO)Cc1cccs1 (stereo not drawn) [Example 49] | 25 % of control | 25 % of control |  |
| CCCCCCC/C=C/C=C/C(=O)NCC(O)c1ccc(OC)cc1 (stereo not drawn) [Example 56] | 36 % of control | -1 % of control |  |
| CCCCCCC/C=C/C=C/C(=O)NCCc1ccccn1 [Example 68] | 41 % of control | -2 % of control |  |
| CCCCCCC/C=C/C=C/C(=O)Nc1nc2cc(C)c(C)cc2s1 [Example 72] | 37 % of control | 30 % of control |  |
| CCCCCCC/C=C/C=C/C(=O)Nc1ccc(Oc2ccc(C(F)(F)F)cc2)cc1 [Example 84] | 30 % of control | 30 % of control |  |

From patent EP2435019B1, “DODECA-2E,4E-DIENE AMIDES AND THEIR USE AS MEDICAMENTS AND COSMETICS” (Dr. August Wolff GmbH & Co. KG Arzneimittel, priority 2009, dated 2010)
